Key:
Assay type in all cases: cell-based, Human
MUC1 C-ter [1] = assay: Expression of MUC1 C-ter after CHX; details: CHX treatment
Experimental: (§1) Immunoblot analysis. Lysates were prepared from subconfluent cells as described (Li et al., 2001a). Equal amounts of protein were separated by SDS-PAGE and transferred to nitrocellulose membranes. […] The immunocomplexes were detected with horseradish peroxidase-conjugated secondary antibodies and enhanced chemiluminescence (ECL, Amersham Biosciences, Piscataway, N.J.). Intensity of the signals was determined by densitometric scanning.
Methods. Apoptotic cells were quantified by analysis of sub-G1 DNA and TUNEL staining. […] DNA content was analyzed by flow cytometry (EPICS XL-MCL, Coulter Corp.). Apoptotic cells with DNA fragmentation were detected by staining with the In Situ cell death detection kit (TUNEL; Roche Applied Science) and visualized by confocal microscopy (ZEISS LSM510). After staining, cells were analyzed by flow cytometry. […]

HCT116/vector cells [2] = assay: Apoptosis by analysis of sub-G1 DNA, HCT116/vector cells
Experimental: Methods. Apoptotic cells were quantified by analysis of sub-G1 DNA and TUNEL staining. To assess sub-G1 DNA content, cells were harvested, washed with PBS, fixed with 80% ethanol, and incubated in PBS containing 20 ng/ml RNase (Roche) for 60 min at 37° C. Cells were then stained with […] propidium iodide (Sigma) for 30 min at room temperature in the dark. DNA content was analyzed by flow cytometry (EPICS XL-MCL, Coulter Corp.). Apoptotic cells with DNA fragmentation were detected by staining with the In Situ cell death detection kit (TUNEL; Roche Applied Science) and visualized by confocal microscopy (ZEISS LSM510). After staining, cells were analyzed by flow cytometry. Other experimental procedures and methods were as described in Example 1.

HCT116/MUC1 cells = assay: Cell death after CDDP treatment, HCT116/MUC1 cells; details: CDDP for 72 h, cessation of cell growth
Experimental: (§2) Cell culture. Human HCT116 colon carcinoma cells (ATCC, Manassas, Va.) were cultured in Dulbecco's modified Eagle's medium/F12 with 10% heat-inactivated fetal bovine serum, 100 units/ml penicillin, […] streptomycin and 2 mM L-glutamine. Cells were treated with EGF (10 ng/ml; Calbiochem-Novabiochem, San Diego, Calif.), HRG (20 ng/ml; Calbiochem-Novabiochem), cisplatin (CDDP; Sigma), etoposide (Sigma), rhTNF-a (Promega, Madison, Wis.), CHX (Sigma) or rhTRAIL (100 ng/ml; Calbiochem-Novabiochem).
(§3) Methods. Experimental procedures and methods were as described in Example 1.

HCT116/vector cells [3] = assay: Cell death after CDDP treatment, HCT116/vector cells; details: CDDP for 72 h
Experimental: as §2, §3

cytochrome c = assay: Release of mitochondrial cytochrome c to the cytosol (immunoblot), HCT116/vector cells; details: HCT116/vector cells treated with CDDP
Experimental: as §2
as §1, with “scanning. […]” for “scanning.”

HCT116/MUC1(Y46F) cells = assay: Cell death after CDDP treatment, HCT116/MUC1(Y46F) cells; details: CDDP for 72 h
Experimental: as §2, §3

MUC1 C-ter [4] = assay: Mitochondrial localization of MUC1 C-ter in HCT116/MUC1 cells (immunoblot of mitochondrial fractions)
Experimental: as §2
as §1, with “scanning. […]” for “scanning.”

MUC1(Y46F) C-ter = assay: Mitochondrial localization of MUC1(Y46F) C-ter in HCT116/MUC1(Y46F) cells (immunoblot of mitochondrial fractions)
Experimental: as §2
as §1, with “scanning. […]” for “scanning.”

C[C@@H]1C[C@@H]([C@H](O)CC2CC(=O)NC(=O)C2)C(=O)[C@@H](C)C1 [CHX, cycloheximide]
effect on expression of MUC1 C-ter (MUC1 C-ter [1]): no apparent effect

[NH2][Pt]([NH2])([Cl])[Cl] [CDDP, cisplatin]
apoptosis (sub-G1 DNA) (HCT116/vector cells [2]; 100 μM CDDP for 24 h): approximately 40%
cell death (HCT116/MUC1 cells): < 30%
cell death (HCT116/vector cells [3]): > 90%
levels of cytosolic cytochrome c (cytochrome c): increased levels of cytosolic cytochrome c
cell death (HCT116/MUC1(Y46F) cells): > 90%

heregulin [HRG]
increase in localization of MUC1 C-ter to mitochondria (MUC1 C-ter [4]; HRG 20 ng/ml, 0.5 h, persisted through 3 h): 2.3 fold
effect on mitochondrial localization of MUC1(Y46F) C-ter (MUC1(Y46F) C-ter; HRG 20 ng/ml): little effect

TNF-α
induction of apoptosis (HCT116/vector cells [2]; 20 ng/ml TNF-α in the presence of 10 ng/ml cycloheximide (CHX), 12 hr): associated with induction of HCT116/vector cell apoptosis
induction of apoptosis (HCT116/vector cells [2]; TNF-α alone): failed to induce apoptosis

EGF: EGF (10 ng/ml; Calbiochem-Novabiochem) (NSDSECPLSHDGYCLHDGVCMYIEALDKYACNCVVGYIGERCQYRDLKWWELR; Epidermal growth factor; UniProt P01133 971-1023, looked up)
effect on mitochondrial targeting of MUC1 C-ter (MUC1 C-ter [4]; EGF 10 ng/ml): little effect
effect on mitochondrial targeting of MUC1 C-ter (MUC1(Y46F) C-ter; EGF 10 ng/ml): little effect

Reference: US20070202134A1, “Muc1 Antagonist Enhancement of Death Receptor Ligand-Induced Apoptosis” (priority 2004, published 2007)
